Our source for the IC50 values is BindingDB's records for doi:10.1016/j.bioorg.2016.01.008 (King Abdulaziz University, 2016).

One may read the IC50 as the concentration that inhibits the measured activity by half. Low readings indicate inhibition by little substance, high ones a need for much substance.

Molecules are shown by their SMILES.

In the assay the target is Alpha-glucosidase MAL12 (Saccharomyces cerevisiae (strain ATCC 204508 / S288c), UniProt P53341). Description: In-vitro Yeast α-Glucosidase Inhibition Assay. On the procedure: α-Glucosidase inhibitory activity was evaluated at 37 °C, by using 0.1M phosphatebuffer (pH6.8) [28]. The enzyme(EC3.2.1.20, Saccharomyces cerevisiae purchased from sigma; catalog # G5003) (0.2 U/mL) was incubated with test compounds and phosphate buffer at 37 °C for 15 min. After 15min of incubation, 0.7 mM of substrate i.e. p-nitrophenyl-α-D-glucopyranoside (Sigma; catalog # N1377) was added and the change in absorbance was recorded at 400 nm for 30min by using spectrophotometer (SpectraMax M2, Molecular Devices, CA, USA).
Alpha-glucosidase MAL12, sequence (P53341 whole entry): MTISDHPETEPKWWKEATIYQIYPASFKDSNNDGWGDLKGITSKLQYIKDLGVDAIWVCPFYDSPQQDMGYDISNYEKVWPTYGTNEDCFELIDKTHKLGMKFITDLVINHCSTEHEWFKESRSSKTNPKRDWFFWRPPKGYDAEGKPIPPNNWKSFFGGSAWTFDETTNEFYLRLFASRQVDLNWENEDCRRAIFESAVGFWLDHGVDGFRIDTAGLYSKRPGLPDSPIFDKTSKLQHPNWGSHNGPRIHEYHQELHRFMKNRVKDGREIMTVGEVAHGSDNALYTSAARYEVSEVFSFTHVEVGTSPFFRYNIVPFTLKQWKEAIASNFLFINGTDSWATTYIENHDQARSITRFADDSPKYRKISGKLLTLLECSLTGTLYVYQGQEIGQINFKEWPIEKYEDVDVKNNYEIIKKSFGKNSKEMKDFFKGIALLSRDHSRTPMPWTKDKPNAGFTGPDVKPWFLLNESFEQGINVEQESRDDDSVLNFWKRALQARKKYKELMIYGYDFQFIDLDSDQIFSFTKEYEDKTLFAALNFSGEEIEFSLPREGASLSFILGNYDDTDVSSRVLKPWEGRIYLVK
With `Cc1[nH]nc2c1C(c1ccccc1OCc1ccccc1)C(C#N)=C(N)O2` (stereo not given) [6-Amino-4-(2-(benzyloxy)phenyl)-3-methyl-2,4-dihydropyrano[2,3-c]pyrazole-5-carbonitrile (33)], it took 164 µM to reach half-maximal inhibition (IC50).

The compound `COc1cc(C2C(C#N)=C(N)Oc3n[nH]c(C)c32)ccc1OCc1ccccc1` (stereo not given) [6-Amino-4-(4-(benzyloxy)-3-methoxyphenyl)-3-methyl-2,4-dihydropyrano[2,3-c]pyrazole-5-carbonitrile (30)] displayed an IC50 of 60.8 µM.

Regarding `Cc1[nH]nc2c1C(c1ccc(O)c(OCc3ccccc3)c1)C(C#N)=C(N)O2` (stereo not given) [6-Amino-4-(3-(benzyloxy)-4-hydroxyphenyl)-3-methyl-2,4-dihydropyrano[2,3-c]pyrazole-5-carbonitrile (22)], the IC50 was 160 µM.

The compound `Cc1[nH]nc2c1C(c1ccc([N+](=O)[O-])cc1)C(C#N)=C(N)O2` (stereo not given) [6-Amino-3-methyl-4-(4-nitrophenyl)-2,4-dihydropyrano[2,3-c]pyrazole-5-carbonitrile (1)] came in with an IC50 of 54.2 µM.

`Cc1n[nH]c2c1C(c1ccc(Cl)cc1Cl)C(C#N)=C(N)O2` (stereo not given) [6-Amino-4-(2,4-dichlorophenyl)-3-methyl-2,4-dihydropyrano[2,3-c]pyrazole-5-carbonitrile (4)] displayed an IC50 of 180 µM.
